{"source": "patent US11884710B2", "about": "“Peptide compounds and methods of use in wound healing” (priority 2013, dated 2024)", "key": {"Escherichia coli": {"system": "Escherichia coli", "test": "In vitro bactericidal activity against Escherichia coli", "assay_type": "cell-based", "conditions": "E. coli; inoculum 1×10^6 CFU/ml; 60 to 180 minute incubation", "method": "(§1) In vitro bactericidal activity: The three peptide compounds BCC01-5RMP (SEQ ID NO:23), BCC002-5RMP (SEQ ID NO:21), and BCC003-5RMP (SEQ ID NO:22) were assayed for in vitro bactericidal activity against Pseudomonas aeruginosa, Escherichia coli, Salmonella typhimurium, and Acinetobacter baumannii. The starting inoculum for all experiments was 1×10^6 colony forming units (CFU)/ml. The CFU remaining at the end of 60 to 180 minute incubation was determined, and the data plotted as a log reduction in CFU/ml."}, "Salmonella typhimurium": {"system": "Salmonella typhimurium", "test": "In vitro bactericidal activity against Salmonella typhimurium", "assay_type": "cell-based", "conditions": "inoculum 1×10^6 CFU/ml, 60 to 180 minute incubation", "method": "as §1"}, "P. aeruginosa ATCC 27853": {"system": "P. aeruginosa ATCC 27853", "assay_type": "cell-based, Pseudomonas aeruginosa", "conditions": "Pseudomonas; inoculum 1×10^6 CFU/ml; 60 to 180 minute incubation", "method": "as §1\nTable 4 further compares the activity of several other compounds, including the “5R” versions of BCC01, i.e., SEQ ID NO:20 (which comprises SEQ ID NO: 7 with five additional arginines), the “5R” version of BCC002 (i.e., SEQ ID NO:18, which comprises SEQ ID NO: 1 with five additional arginines), and the 5RMP versions of BCC01 (SEQ ID NO: 23) and BCC002 (SEQ ID NO: 21). The data generally indicate the superiority of BCC003-5RMP (SEQ ID NO:22) and BCC002-5RMP (SEQ ID NO: 21) and the superiority of the 5R or 5RMP versions of the peptide over the “AEEP only” peptide against P. aeruginosa."}, "Acinetobacter baumannii": {"system": "Acinetobacter baumannii", "test": "In vitro bactericidal activity against Acinetobacter baumannii", "assay_type": "cell-based", "conditions": "inoculum 1×10^6 CFU/ml, 60 to 180 minute incubation", "method": "as §1"}, "[1]": {"system": "release of TNF-α from LPS-stimulated RAW264.7 cells", "test": "LPS neutralization: TNF-α release from LPS-stimulated RAW264.7 cells", "assay_type": "cell-based, mouse", "method": "(§2) The well-characterized response of RAW264.7 macrophage cells was used to produce tumor necrosis-factor-alpha (TNF-α) in response to LPS to determine whether the peptides could dampen the release of this cytokine. […] Importantly, pre-treatment (3 hours prior to LPS addition) as well as post-treatment of the RAW264.7 cells (3 hours post LPS addition) with peptide dampened the cytokine release. […] The finding that the novel peptides bind and neutralize the effect of Pseudomonas LPS is of critical importance since this ensures that the novel therapeutic peptide compounds described herein will not only kill the bacteria, but will also neutralize the LPS endotoxin released by the bacteria which plays such an important role in the rapid progression of sepsis.\n(§3) BCC01-5RMP (SEQ ID NO:23), BCC002-5RMP (SEQ ID NO:21), and BCC003-5RMP (SEQ ID NO:22) were tested for their ability to bind lipopolysaccharide (LPS) using the limulus amebocyte lysate method (LAL). […] There was no statistical difference in their ability to bind LPS using the LAL technique. The ability of the peptides to neutralize LPS was assessed by determining their ability to attenuate the release of tumor necrosis factor-alpha (TNF-α) from LPS-stimulated RAW264.7 cells (a mouse macrophage cell line). […] No significant differences were observed between the three peptides to neutralize LPS as measured by cytokine release. Peptides based on sequence 120-146 (SEQ ID NOS:28-31) also bind and neutralize Pseudomonas LPS."}, "Pseudomonas LPS": {"system": "Pseudomonas LPS", "test": "LPS binding, Limulus Amebocyte Lysate (LAL) assay", "conditions": "LAL method", "method": "as §2, §3"}, "[2]": {"system": "human corneal epithelial cell (HCEC)", "test": "HCEC chemotaxis, modified Boyden chemotaxis chamber", "assay_type": "cell-based", "conditions": "HB-EGF 50 ng/ml; positive control", "method": "The effect of buffer control (0.1% BSA in Gey's buffer), heparin binding-epidermal growth factor (HB-EGF, 50 ng/ml), recombinant CAP37 (rCAP37, 250 ng/ml), 120-146QH (10^−12M, 10^−10 M, 10^−8 M, 10^−6M, and 10^−4M,) and 120-146QR (10^−10M, 10^−8M, 10^−6M, and 10^−4M) on HCEC chemotaxis was determined by the modified Boyden chemotaxis chamber method. HCEC chemotaxis was measured in response to HB-EGF, rCAP37, and peptides 120-146QH (SEQ ID NO:29) and 120-146QR (SEQ ID NO:28) after incubation for 3 hours at 37° C. Chemotaxis is expressed as a percent migration. The buffer control (no chemoattractant) is arbitrarily assigned the value of 100% migration. Data are expressed as means±SEM and are calculated from 6 observations for each test point. **P<0.01 by Wilcoxon signed-rank test as compared to controls.\nChemotaxis: Chemotaxis assays were performed using the modified Boyden chemotaxis chamber assay. Peptide 120-146QH was used at 10^−4 M, 10^−6 M, 10^−8 M, 10^−10 M, and 10^−12 M, and peptide 120-146QR was used at 10^−4 M, 10^−6 M, 10^−8M, and 10^−10M."}, "[3]": {"system": "mouse corneal epithelium abrasion", "test": "In vivo model of corneal wound healing", "conditions": "HB-EGF 250 ng/ml at 0 and 16 hours", "method": "(§4) The mouse corneal epithelium was removed using the AlgerBrush II (The Alger Company, Inc., Lago Vista, Tex.), and corneal abrasions were treated at 0 hours and 16 hours with peptide 95-122 (10^−5 M), or were left untreated in 0.9% sodium chloride (saline vehicle) Wound healing was monitored at 0, 16, and 24 hours using fluorescein staining and a camera-equipped inverted microscope. Data are represented as the percentage of wound closure at 16 hours and 24 hours and are expressed as means±SEM. The data are representative of at least 6 mice per group. *P<0.05 by unpaired t-test as compared to vehicle (0.9% sodium chloride) treated controls.\nas §4, with “II,” for “II (The Alger Company, Inc., Lago Vista, Tex.),”, “0” for “0 hours”, “120-146WH (10^−8 M or 10^−6” for “95-122 (10^−5”, “vehicle control).” for “vehicle)”, “group. ***P<0.001,” for “group.”\n(A) The epithelium of the mouse cornea was removed using the AlgerBrush II, and corneal abrasions were treated at 0 and 16 hours with HB-EGF (250 ng/ml), rCAP37 (250 ng/ml), or vehicle control (normal saline). Wound closure was monitored at 0, 16, 24, and 48 hours using fluorescein staining and a camera-equipped inverted microscope. Data are represented as the percentage of wound closure and are expressed as mean±SEM. The data are representative of at least 6 mice per group. The percentage of wound closure in response to treatment was compared to vehicle-treated controls by unpaired t-test, **P<0.01, *P<0.05. (B) Representative images of mouse corneal wounds are shown at 0, 16, 24, and 48 hours following treatment with vehicle, HB-EGF, and CAP37. Black dotted lines indicate the wound edge.\nIn vivo model of corneal wound healing: The in vivo model of wound healing was carried out using a disposable biopsy punch (2 mm, Miltex, York, Pa.) to demarcate the mouse cornea and a 0.5 mm burr using the AlgerBrush II (The Alger Company, Inc., Lago Vista, Tex.) to remove the corneal epithelium.\nIn vivo model of wound healing: Mice were anesthetized using ketamine (100 mg/kg; Bionichepharma, LLC., St. Lake Forrest, Ill.) and xylazine ([…]; Rompun; Bayer Corp., Shawnee Mission, Kans.), and the right cornea was wounded as follows. A disposable biopsy punch (2 mm, Miltex, York, Pa.) was used to demarcate the mouse cornea. The corneal epithelium was carefully removed within the 2 mm demarcated area with a 0.5 mm burr using the AlgerBrush II (The Alger Company, Inc., Lago Vista, Tex.). The corneal abrasions were treated at 0 and 16 hours with HB-EGF (250 ng/ml), rCAP37 (250 ng/ml), or vehicle control (0.9% sodium chloride, pH 5.5, Baxter, Deerfield, Ill.). Corneal abrasions were visualized using sterile fluorescein sodium ophthalmic strips USP (FLUORETS®, Chauvin Laboratory, Aubenas, France) dampened with sterile PBS. […] The areas of the open wound were quantitated using ImageJ software (US National Institutes of Health), and the results were reported as the percentage of wound closure."}, "HCEC monolayers": {"system": "HCEC monolayers", "test": "In vitro scratch assay of HCEC monolayers", "assay_type": "cell-based, human", "conditions": "HB-EGF 250 ng/ml", "method": "(A) HCECs were grown to confluency and scratched using a 10 μl pipette tip. Scratched HCEC monolayers were treated with HB-EGF (250 ng/ml) or rCAP37 (25-2000 ng/ml), or were left untreated in basal Keratinocyte Serum Free Medium (KSFM). Wound closure was monitored at 0, 18, 24, and 48 hours utilizing a camera-equipped inverted microscope. The histogram represents data acquired at 48 hours, and the values are the mean±SEM of the percentage of wound closure. The data are representative of at least 4 independent experiments. The percentage of wound closure in treated monolayers was compared to untreated controls by one-way analysis of variance (ANOVA) followed by Dunnett's multiple comparison test, **P<0.01, *P<0.05. (B) Representative images of scratched monolayers treated with buffer control, HB-EGF, and rCAP37 (at 25, 100, and 250 ng/ml) are shown for each time point. Images were taken at 20× objective.\nIn vitro model of wound healing: An in vitro scratch assay was used in order to determine the ability of rCAP37 to facilitate corneal wound healing. Human corneal epithelial cells were cultured as described above until they reached a confluent monolayer. Each monolayer was scratched using a 10 μl pipette tip to create two perpendicular lines. Monolayers were treated with heparin binding-epidermal growth factor (HB-EGF, 250 ng/ml; Becton Dickinson), rCAP37 (25-2000 ng/ml), or basal KSFM (Gibco). Wound closure was monitored at 0, 18, 24, and 48 hours utilizing a camera-equipped inverted microscope (TE2000-E; Nikon, Melville, N.Y.). Time-lapse images of in vitro wound closure were obtained using a camera-equipped inverted microscope (TE2000-E; Nikon) from […]. HCEC monolayers were treated with HB-EGF, rCAP37, and basal KSFM as described above. The width of each scratch was quantitated using ImageJ software (US National Institutes of Health, Bethesda, Md.). Results are presented as the percentage of wound closure."}}, "note": "Square brackets hold non-standard residues; d marks the D form. Peptide text beside a SMILES is read from it. PEG2 = NCCOCCOCCC(=O)O", "data": [{"molecule": "CC[C@H](C)[C@H](NC(=O)[C@H](CC(C)C)NC(=O)[C@H](C)NC(=O)CNC(=O)CNC(=O)[C@H](CS)NC(=O)[C@H](Cc1ccccc1)NC(=O)[C@H](Cc1c[nH]cn1)NC(=O)[C@H](CCCNC(=N)N)NC(=O)CNC(=O)[C@H](CCC(N)=O)NC(=O)[C@H](CC(N)=O)NC(=O)[C@H](CCCNC(=N)N)NC(=O)[C@H](CCCNC(=N)N)NC(=O)[C@H](CCCNC(=N)N)NC(=O)[C@H](CCCNC(=N)N)NC(=O)CCOCCOCCNC(=O)CCOCCOCCN)C(=O)N[C@@H](Cc1c[nH]cn1)C(=O)N[C@@H](C)C(=O)N[C@@H](CCCNC(=N)N)C(=O)N[C@@H](Cc1ccccc1)C(=O)N[C@H](C(=O)N[C@@H](CCSC)C(=O)N[C@H](C(=O)N[C@@H](C)C(=O)N[C@@H](C)C(=O)N[C@@H](CO)C(=O)N[C@@H](CS)C(=O)N[C@@H](Cc1ccccc1)C(=O)N[C@@H](CCC(N)=O)C(=O)N[C@@H](CCCNC(=N)N)C(=O)O)[C@@H](C)O)C(C)C", "note": "[BCC01-5RMP] (H-[PEG2][PEG2]RRRRNQGRHFCGGALIHARFVMTAASCFQR-OH; C-terminus assumed)", "values": [{"measurement": "in vitro bactericidal activity, in words", "setting": "Escherichia coli", "value": "strong, but lesser activity"}, {"measurement": "in vitro bactericidal activity, in words", "setting": "Salmonella typhimurium", "value": "strong, but lesser activity"}, {"measurement": "in vitro bactericidal activity, in words", "setting": "P. aeruginosa ATCC 27853", "value": "most active"}, {"measurement": "in vitro bactericidal activity, in words", "setting": "Acinetobacter baumannii", "value": "most active"}, {"measurement": "neutralization of LPS: attenuation of TNF-α release", "setting": "[1]", "value": "attenuate the release of TNF-α"}, {"measurement": "binding of Pseudomonas LPS", "setting": "Pseudomonas LPS", "value": "bound Pseudomonas LPS"}]}, {"molecule": "HB-EGF: heparin binding-epidermal growth factor, used as the positive control (protein, UniProt Q99075 63-148, looked up) Heparin-binding EGF-like …: DLQEADLDLLRVTLSSKPQALATPNKEEHGKRKKKGKGLGKKRDPCLRKYKDFCIHGECKYVKELRAPSCICHPGYHGERCHGLSL", "values": [{"measurement": "migration of HCECs vs buffer control, in words", "setting": "[2]", "value": "significant increase in migration"}, {"measurement": "corneal wound closure vs buffer control, in words", "setting": "[3]", "value": "significantly higher compared to the buffer control"}, {"measurement": "time to complete closure of scratch wounds", "setting": "HCEC monolayers; CAP37 250 ng/ml", "value": "≤ 24", "unit": "h"}, {"measurement": "percentage wound closure", "setting": "HCEC monolayers; positive control", "value": "~88", "unit": "%"}]}]}
